How the values were obtained:
Human CD4+ T cells = test: Sensitivity of human CD4+ T cells to BG and BCNU (expansion in culture); assay type: cell-based; settings: for dose dependence of CD4 cell killing / toxicity: increasing dose
Method: CD14 depleted CD4+ cells were purified from peripheral blood with or without cytokine mobilization. […] Under appropriate conditions in the absence of […] and BCNU, CD4+ cells can be expanded up to 100 fold over 10 days in culture. Doses tested were 0, 0.2, 0.5, 2, 5, 10, 20, 30, and 40 μM BG and 0, 2, 5, 10, 20, 30, and 40 μM BCNU. A series of three experiments were performed.

HIV = settings: human, in vivo; cited from earlier work
wild-type U5-HIV RNA = test: In vitro ribozyme cleavage of radiolabeled wild-type U5 HIV RNA (PAGE, autoradiography); assay type: biochemical; settings: target to ribozyme molar ratio 1:2, 37° C. 5 min
Method: (§1) To confirm the resistance to ribozyme cleavage of the crHIV vectors, in vitro transcription was performed. To accomplish this, the ribozyme sequences were cloned into the Xho I site of pBluescript KSII (Stratagene, La Jolla, Calif.). A 0.21 kilobase pair (kb) Bgl II fragment containing the mutated crHIV U5 region similarly was excised from the crHIV vector and inserted into the Bam HI site of pBluescript KSII. The resultant modified pBluescript KSII vectors were linearized with Bss HII prior to in vitro transcription. A similar plasmid expressing wild-type HIV U5 RNA (described in Myers et al. (1994), supra) was employed as a control. It was linearized with Eco RI prior to in vitro transcription.
(§2) Radiolabeled U5 HIV RNA and ribozyme RNA were produced by in vitro transcription of the vectors, as previously described (Dropulic' et al. (1992), supra). The radiolabeled transcripts were incubated together (at a target to ribozyme molar ratio of 1:2) in 1×transcription buffer containing 40 mM Tris-HCl, pH 7.5, 6 mM MgCl2, 2 mM Spermidine, and 10 mM NaCl. The samples were heated to 65° C., and then cooled to 37° C. for 5 min prior to the addition of stop buffer solution containing 95% formamide, 20 mM EDTA, 0.05% Bromophenol Blue, and 0.05% Xylene Cyanol FF. The products' were then resolved by denaturing polyacrylamide gel electrophoresis (PAGE), and detected by autoradiography.

[1] = system: modified U5-containing crHIV RNA; test: In vitro ribozyme cleavage of radiolabeled modified crHIV U5 RNA (PAGE, autoradiography); assay type: biochemical; settings: target to ribozyme molar ratio 1:2, 37° C. 5 min
Method: as §1, §2

Compound: O=NN(CCCl)C(=O)NCCCl [BCNU, 1,3-bis(2-chloroethyl)-1-nitrosourea]
- growth delay of CD4+ cells (Human CD4+ T cells; BCNU alone): did not result in growth delay
- dose dependence of CD4 cell killing / toxicity (Human CD4+ T cells): toxicity to CD4 cells increased with the BCNU dose

Compound: Nc1nc(OCc2ccccc2)c2nc[nH]c2n1 [BG, O^6-benzylguanine]
- dose dependence of CD4 cell killing / toxicity (Human CD4+ T cells): did not increase cell killing

Compound: Nc1ccn([C@H]2CC[C@@H](CO)O2)c(=O)n1 [ddC]
- range virustatic in most patients (HIV): 0.005-0.25 mg/kg body weight

Compound: CACACAACACTGATGAGGCCGAAAGGCCGAAACGGGCACA (expressed or natural sequence) [the +115 ribozyme]
- cleavage of wild-type U5-HIV RNA (wild-type U5-HIV RNA): cleavage was readily observed
- cleavage of modified U5-containing crHIV RNA [1]: cleavage products were not detected

From patent US20040033595A1, “Conditionally replicating vectors for inhibiting viral infections” (priority 2001, published 2004)
